Experimental data as given in publication PMC10891031 (2024).

Test: plasma from a Sprague Dawley rat
Details: 37 °C, up to 15 min

fragment found: [^18F]FNA, 5 min
Substance: H-ACGLSGLGVA-NH2
